Experimental data from publication PMC9851200, “Multiparameter phenotypic screening for endogenous TFEB and TFE3 translocation identifies novel chemical series modulating lysosome function” (Autophagy, 2022).
Read-outs that look alike come from different tables or passages of the source.

How the values were obtained:
Format in all cases: binding
BMPR1B = BMPR1B (Homo sapiens, UniProt O00238); assay: KINOMEscan BMPR1B; conditions: NEW KINOMEscan
[1] = target: kinases (KINOMEscan panel) (Homo sapiens, UniProt O75914); conditions: NEW KINOMEscan
Sequence of kinases (KINOMEscan panel) (Homo sapiens, UniProt O75914) (O75914 whole entry): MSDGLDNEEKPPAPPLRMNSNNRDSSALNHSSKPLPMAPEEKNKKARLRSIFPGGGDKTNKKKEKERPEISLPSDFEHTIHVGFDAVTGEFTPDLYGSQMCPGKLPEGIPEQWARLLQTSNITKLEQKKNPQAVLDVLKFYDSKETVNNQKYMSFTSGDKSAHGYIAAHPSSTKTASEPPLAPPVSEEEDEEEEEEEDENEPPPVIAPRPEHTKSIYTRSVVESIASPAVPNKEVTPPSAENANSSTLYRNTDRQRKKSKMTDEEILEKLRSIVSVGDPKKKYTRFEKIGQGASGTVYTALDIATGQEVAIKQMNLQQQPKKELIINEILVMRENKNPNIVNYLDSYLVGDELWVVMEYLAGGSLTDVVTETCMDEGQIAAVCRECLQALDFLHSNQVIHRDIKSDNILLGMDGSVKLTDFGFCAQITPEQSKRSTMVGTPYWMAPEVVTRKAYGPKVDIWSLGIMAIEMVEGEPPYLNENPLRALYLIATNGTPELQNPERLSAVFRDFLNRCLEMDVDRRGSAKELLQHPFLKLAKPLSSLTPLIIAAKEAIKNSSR

[2] = target: T1, kinases (KINOMEscan panel) (Homo sapiens, UniProt P42680); conditions: kinase TEC; NEW KINOMEscan
T1 sequence (P42680 1-631): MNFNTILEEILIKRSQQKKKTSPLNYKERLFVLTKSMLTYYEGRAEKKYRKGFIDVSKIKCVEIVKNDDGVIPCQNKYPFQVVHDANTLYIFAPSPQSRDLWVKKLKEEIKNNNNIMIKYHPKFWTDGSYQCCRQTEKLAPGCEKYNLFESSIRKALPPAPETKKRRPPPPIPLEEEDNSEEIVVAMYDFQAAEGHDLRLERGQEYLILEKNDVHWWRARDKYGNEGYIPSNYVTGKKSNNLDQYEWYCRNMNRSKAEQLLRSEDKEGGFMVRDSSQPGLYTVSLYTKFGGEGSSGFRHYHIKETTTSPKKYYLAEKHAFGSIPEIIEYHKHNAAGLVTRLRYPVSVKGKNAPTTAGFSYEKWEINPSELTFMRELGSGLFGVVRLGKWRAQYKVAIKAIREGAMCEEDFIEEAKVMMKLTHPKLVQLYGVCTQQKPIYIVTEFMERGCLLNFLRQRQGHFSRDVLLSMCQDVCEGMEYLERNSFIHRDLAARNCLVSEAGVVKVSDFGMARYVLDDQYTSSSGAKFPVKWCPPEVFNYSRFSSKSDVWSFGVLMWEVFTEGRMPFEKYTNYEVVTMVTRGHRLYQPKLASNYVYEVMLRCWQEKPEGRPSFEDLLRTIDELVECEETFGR

[3] = target: kinases (KINOMEscan panel) (Homo sapiens, UniProt P49137)
Sequence of kinases (KINOMEscan panel) (Homo sapiens, UniProt P49137) (P49137 whole entry): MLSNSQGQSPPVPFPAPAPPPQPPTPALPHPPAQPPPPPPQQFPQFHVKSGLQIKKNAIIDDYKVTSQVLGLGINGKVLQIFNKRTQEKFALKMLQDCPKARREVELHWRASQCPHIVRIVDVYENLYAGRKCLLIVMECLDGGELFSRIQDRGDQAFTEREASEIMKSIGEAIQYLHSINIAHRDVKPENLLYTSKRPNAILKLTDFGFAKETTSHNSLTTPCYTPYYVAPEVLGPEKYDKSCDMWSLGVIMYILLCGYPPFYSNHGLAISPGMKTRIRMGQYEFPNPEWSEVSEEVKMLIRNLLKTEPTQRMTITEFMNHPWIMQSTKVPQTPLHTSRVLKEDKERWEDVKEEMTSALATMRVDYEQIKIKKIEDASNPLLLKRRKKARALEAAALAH

[4] = target: T2, kinases (KINOMEscan panel) (Homo sapiens, UniProt Q6ZN16); conditions: NEW KINOMEscan
T2 sequence (Q6ZN16 1-1313): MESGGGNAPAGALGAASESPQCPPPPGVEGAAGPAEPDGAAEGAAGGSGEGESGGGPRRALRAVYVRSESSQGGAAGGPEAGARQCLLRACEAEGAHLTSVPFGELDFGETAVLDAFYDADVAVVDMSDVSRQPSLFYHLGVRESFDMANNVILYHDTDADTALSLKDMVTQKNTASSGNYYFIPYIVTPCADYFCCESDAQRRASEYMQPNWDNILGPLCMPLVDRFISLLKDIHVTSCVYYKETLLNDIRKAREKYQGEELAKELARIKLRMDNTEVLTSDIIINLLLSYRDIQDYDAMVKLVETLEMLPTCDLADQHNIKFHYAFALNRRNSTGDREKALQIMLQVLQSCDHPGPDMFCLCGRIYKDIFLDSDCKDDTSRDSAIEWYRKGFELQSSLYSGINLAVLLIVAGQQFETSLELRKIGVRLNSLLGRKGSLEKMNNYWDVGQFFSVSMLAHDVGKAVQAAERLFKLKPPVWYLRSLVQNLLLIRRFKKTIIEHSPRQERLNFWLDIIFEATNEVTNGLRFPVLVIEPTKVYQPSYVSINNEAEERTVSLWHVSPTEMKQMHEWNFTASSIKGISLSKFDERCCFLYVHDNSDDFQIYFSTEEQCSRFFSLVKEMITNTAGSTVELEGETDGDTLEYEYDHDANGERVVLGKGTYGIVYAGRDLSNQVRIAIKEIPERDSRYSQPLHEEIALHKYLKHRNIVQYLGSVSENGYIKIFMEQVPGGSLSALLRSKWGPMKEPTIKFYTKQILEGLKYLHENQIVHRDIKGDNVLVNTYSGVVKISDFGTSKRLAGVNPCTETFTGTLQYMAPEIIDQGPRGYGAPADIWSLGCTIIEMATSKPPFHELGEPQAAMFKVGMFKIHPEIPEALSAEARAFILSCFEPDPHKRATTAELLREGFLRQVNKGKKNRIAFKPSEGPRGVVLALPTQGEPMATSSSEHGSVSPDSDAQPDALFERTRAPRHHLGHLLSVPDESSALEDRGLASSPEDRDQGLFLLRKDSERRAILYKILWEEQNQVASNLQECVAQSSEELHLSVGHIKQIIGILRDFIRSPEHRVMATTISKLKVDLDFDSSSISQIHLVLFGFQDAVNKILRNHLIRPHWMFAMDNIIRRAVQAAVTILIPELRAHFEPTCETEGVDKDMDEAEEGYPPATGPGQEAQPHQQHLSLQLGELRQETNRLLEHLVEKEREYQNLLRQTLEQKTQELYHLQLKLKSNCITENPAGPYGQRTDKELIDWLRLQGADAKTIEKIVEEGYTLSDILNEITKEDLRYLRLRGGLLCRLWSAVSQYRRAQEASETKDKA

[5] = target: T3, kinases (KINOMEscan panel) (Homo sapiens, UniProt Q8IVH8); conditions: NEW KINOMEscan
T3 sequence (Q8IVH8 1-894): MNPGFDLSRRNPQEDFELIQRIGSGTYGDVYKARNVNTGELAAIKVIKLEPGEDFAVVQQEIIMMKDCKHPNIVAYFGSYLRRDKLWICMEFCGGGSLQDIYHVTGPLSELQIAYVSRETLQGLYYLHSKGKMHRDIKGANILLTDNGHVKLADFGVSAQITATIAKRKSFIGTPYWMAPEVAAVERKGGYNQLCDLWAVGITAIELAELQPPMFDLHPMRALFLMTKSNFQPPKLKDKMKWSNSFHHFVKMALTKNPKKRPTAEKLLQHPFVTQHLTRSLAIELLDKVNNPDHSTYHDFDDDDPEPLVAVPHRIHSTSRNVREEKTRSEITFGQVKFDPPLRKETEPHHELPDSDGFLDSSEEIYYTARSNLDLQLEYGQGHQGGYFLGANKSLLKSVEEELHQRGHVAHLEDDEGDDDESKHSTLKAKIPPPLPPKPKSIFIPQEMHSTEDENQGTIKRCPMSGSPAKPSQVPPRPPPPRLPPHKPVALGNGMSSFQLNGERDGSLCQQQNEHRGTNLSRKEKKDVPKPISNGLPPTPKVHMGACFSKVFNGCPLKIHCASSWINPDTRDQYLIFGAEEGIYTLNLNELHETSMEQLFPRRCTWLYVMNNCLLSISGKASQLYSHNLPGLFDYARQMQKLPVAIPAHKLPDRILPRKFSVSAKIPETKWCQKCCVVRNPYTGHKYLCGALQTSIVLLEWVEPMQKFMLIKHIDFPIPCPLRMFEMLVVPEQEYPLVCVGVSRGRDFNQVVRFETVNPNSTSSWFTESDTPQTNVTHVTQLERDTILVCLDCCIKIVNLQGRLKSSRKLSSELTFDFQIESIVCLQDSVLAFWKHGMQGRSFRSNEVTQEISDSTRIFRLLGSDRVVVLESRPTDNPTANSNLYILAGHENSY

Sequence of BMPR1B (O00238 14-502): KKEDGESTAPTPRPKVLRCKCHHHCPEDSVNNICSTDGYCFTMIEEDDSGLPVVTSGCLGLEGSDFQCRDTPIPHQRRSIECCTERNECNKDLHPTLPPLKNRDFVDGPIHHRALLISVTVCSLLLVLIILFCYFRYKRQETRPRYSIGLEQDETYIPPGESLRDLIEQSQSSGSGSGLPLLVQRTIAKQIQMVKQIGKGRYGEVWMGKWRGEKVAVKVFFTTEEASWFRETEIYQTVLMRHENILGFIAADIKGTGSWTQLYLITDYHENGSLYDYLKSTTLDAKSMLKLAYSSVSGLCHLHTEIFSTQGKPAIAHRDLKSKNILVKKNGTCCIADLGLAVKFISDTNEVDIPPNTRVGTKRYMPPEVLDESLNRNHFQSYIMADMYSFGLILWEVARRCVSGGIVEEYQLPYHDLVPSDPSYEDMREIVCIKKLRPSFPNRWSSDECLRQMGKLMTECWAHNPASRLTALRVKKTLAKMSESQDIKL

| SMILES | KINOMEscan BMPR1B (BMPR1B) | KINOMEscan PAK3 [1] | KINOMEscan TEC [2] | KINOMEscan MAPKAPK2 ([3]; kinase MAPKAPK2, NEW KINOMEscan) | KINOMEscan MAP3K15 [4] | KINOMEscan MAP4K3 [5] | KINOMEscan MAPKAPK2 [3] |
| --- | --- | --- | --- | --- | --- | --- | --- |
| Cc1cccc(-c2nc(Nc3ccc4nn(C)cc4c3)c3ccccc3n2)n1 [NK167] | 0 | 12 | 0 | 0 | 21 | 20 |  |
| Cc1cccc(-c2nc(N(C)c3ccc4ncsc4c3)c3ccccc3n2)n1 [NK-161] | 8 | 17 | 0 |  | 21 | 22 | 0 |
